Assay results from US20190224186A1, “TREATMENT OF MULTIPLE SCLEROSIS WITH CHS-131” (InteKrin Therapeutics, Inc., priority 2016, published 2019).
“And” between values parts separate entries of the source, which are not always exact repeats. Identical values can stand only once.

Legend:
[1] = system: MS patients in the relapsing and remitting course of the disease (RRMS); assay: Phase 2 trial: change in cortical (neocortical) volume by MRI, SIENAX-MTP3; assay type: in vivo, human; settings: 1 mg
[2] = system: MS patients in the relapsing and remitting course of the disease (RRMS); assay: Calculated dose response curve: expected new gadolinium CE T1-weighted lesions over six months; parameters: species or system human
Protocol: To test the hypothesis that women will benefit from higher doses of CHS-131 and identify efficacious doses of CHS-131 for women, a dose response curve was calculated. The dose response curve was calculated to determine the efficacy of various daily dose of CHS-131 for males and females. The dose-response curve is assumed to have the following form: RDose=α exp β−Dose+γ Parameter β was determined from negative binomial regression using the observed total new GAD CE lesions 6 Months and numeric dosage of 0, 1, 3 mg. Parameters α and γ were determined using least-squares method on the observed mean total new GAD CE lesions 6 Months. Based on the clinical trial data, we calculated the expected number of new gadolinium CE T1-weighted lesions that would be seen over six months on doses of CHS-131 ranging from 1 to 10 mg per day. Table 7 below provides a tabular report of the percent reduction compared to the number of lesions at a 0 mg dose.

`O=S(=O)(Nc1cc(Cl)c(Oc2cnc3ccccc3c2)c(Cl)c1)c1ccc(Cl)cc1Cl` [CHS-131] was tested, and the “reduction in the loss of cortical volume” value [1] was “No reduction in the loss of cortical volume was observed”, the “Cortical volume, percent change from baseline to 6 month, Mean” value ([1]; n=50) was −1.350% and the “Cortical volume, percent change from baseline to 6 month, Median” value ([1]; n=50) was −1.428%. For the same compound, the “Cortical volume, percent change from baseline to 3 month, Mean” value ([1]; n=57) was −0.706%, the “Cortical volume, percent change from baseline to 3 month, Median” value ([1]; n=57) was −0.746% and the “Expected # of Lesions” value ([2]; Females, 1 mg) was 7.14. For the same compound, the “Expected Percent Change from Placebo” value ([2]; Females, 1 mg) was −25.9%, the “Expected Percent Reduction vs 0 mg dose” value ([2]; Females, 1 mg) was 13.98% and the “Expected # of Lesions” value ([2]; Females, 2 mg) was 6.15. The “Expected Percent Change from Placebo” value ([2]; Females, 2 mg) was −36.0%, the “Expected Percent Reduction vs 0 mg dose” value ([2]; Females, 2 mg) was 25.90% and the “Expected # of Lesions” value ([2]; Females, 3 mg) was 5.31. The “Expected Percent Change from Placebo” value ([2]; Females, 3 mg) was −44.7%, the “Expected Percent Reduction vs 0 mg dose” value ([2]; Females, 3 mg) was 36.02% and the “Expected # of Lesions” value ([2]; Females, 4 mg) was 4.59. For the same compound, the “Expected Percent Change from Placebo” value ([2]; Females, 4 mg) was −52.1%, the “Expected Percent Reduction vs 0 mg dose” value ([2]; Females, 4 mg) was 44.70% and the “Expected # of Lesions” value ([2]; Females, 5 mg) was 3.97. The “Expected Percent Change from Placebo” value ([2]; Females, 5 mg) was −58.5%, the “Expected Percent Reduction vs 0 mg dose” value ([2]; Females, 5 mg) was 52% and 52.17% and the “Expected # of Lesions” value ([2]; Females, 6 mg) was 3.45. For the same compound, the “Expected Percent Change from Placebo” value ([2]; Females, 6 mg) was −63.9%, the “Expected Percent Reduction vs 0 mg dose” value ([2]; Females, 6 mg) was 58.43% and the “Expected # of Lesions” value ([2]; Females, 7 mg) was 3.00. For the same compound, the “Expected Percent Change from Placebo” value ([2]; Females, 7 mg) was −68.5%, the “Expected Percent Reduction vs 0 mg dose” value ([2]; Females, 7 mg) was 63.86% and the “Expected # of Lesions” value ([2]; Females, 8 mg) was 2.62. For the same compound, the “Expected Percent Change from Placebo” value ([2]; Females, 8 mg) was −72.4%, the “Expected Percent Reduction vs 0 mg dose” value ([2]; Females, 8 mg) was 68.43% and the “Expected # of Lesions” value ([2]; Females, 9 mg) was 2.29. The “Expected Percent Change from Placebo” value ([2]; Females, 9 mg) was −75.8%, the “Expected Percent Reduction vs 0 mg dose” value ([2]; Females, 9 mg) was 72.41% and the “Expected # of Lesions” value ([2]; Females, 10 mg) was 2.01. For the same compound, the “Expected Percent Change from Placebo” value ([2]; Females, 10 mg) was −100.0%, the “Expected Percent Reduction vs 0 mg dose” value ([2]; Females, 10 mg) was 75.78% and the “Expected # of Lesions” value ([2]; Males & Females, 1 mg) was 6.79. For the same compound, the “Expected Percent Change from Placebo” value ([2]; Males & Females, 1 mg) was −31.4%, the “Expected Percent Reduction vs 0 mg dose” value ([2]; Males & Females, 1 mg) was 17.20% and the “Expected # of Lesions” value ([2]; Males & Females, 2 mg) was 5.63. The “Expected Percent Change from Placebo” value ([2]; Males & Females, 2 mg) was −43.0%, the “Expected Percent Reduction vs 0 mg dose” value ([2]; Males & Females, 2 mg) was 31.34% and the “Expected # of Lesions” value ([2]; Males & Females, 3 mg) was 4.67. The “Expected Percent Change from Placebo” value ([2]; Males & Females, 3 mg) was −52.6%, the “Expected Percent Reduction vs 0 mg dose” value ([2]; Males & Females, 3 mg) was 43.05% and the “Expected # of Lesions” value ([2]; Males & Females, 4 mg) was 3.89. For the same compound, the “Expected Percent Change from Placebo” value ([2]; Males & Females, 4 mg) was −60.5%, the “Expected Percent Reduction vs 0 mg dose” value ([2]; Males & Females, 4 mg) was 52.56% and the “Expected # of Lesions” value ([2]; Males & Females, 5 mg) was 3.24. For the same compound, the “Expected Percent Change from Placebo” value ([2]; Males & Females, 5 mg) was −66.9%, the “Expected Percent Reduction vs 0 mg dose” value ([2]; Males & Females, 5 mg) was 60.49% and the “Expected # of Lesions” value ([2]; Males & Females, 6 mg) was 2.71. The “Expected Percent Change from Placebo” value ([2]; Males & Females, 6 mg) was −72.3%, the “Expected Percent Reduction vs 0 mg dose” value ([2]; Males & Females, 6 mg) was 66.95% and the “Expected # of Lesions” value ([2]; Males & Females, 7 mg) was 2.27. The “Expected Percent Change from Placebo” value ([2]; Males & Females, 7 mg) was −76.6%, the “Expected Percent Reduction vs 0 mg dose” value ([2]; Males & Females, 7 mg) was 72.32% and the “Expected # of Lesions” value ([2]; Males & Females, 8 mg) was 1.92. For the same compound, the “Expected Percent Change from Placebo” value ([2]; Males & Females, 8 mg) was −80.2%, the “Expected Percent Reduction vs 0 mg dose” value ([2]; Males & Females, 8 mg) was 76.59% and the “Expected # of Lesions” value ([2]; Males & Females, 9 mg) was 1.62. The “Expected Percent Change from Placebo” value ([2]; Males & Females, 9 mg) was −83.2%, the “Expected Percent Reduction vs 0 mg dose” value ([2]; Males & Females, 9 mg) was 80.24% and the “Expected # of Lesions” value ([2]; Males & Females, 10 mg) was 1.38. For the same compound, the “Expected Percent Change from Placebo” value ([2]; Males & Females, 10 mg) was −100.0%, the “Expected Percent Reduction vs 0 mg dose” value ([2]; Males & Females, 10 mg) was 83.17% and the “Expected # of Lesions” value ([2]; Males, 1 mg) was 6.33. The “Expected Percent Change from Placebo” value ([2]; Males, 1 mg) was −42.0%, the “Expected Percent Reduction vs 0 mg dose” value ([2]; Males, 1 mg) was 23.73% and the “Expected # of Lesions” value ([2]; Males, 2 mg) was 4.81. For the same compound, the “Expected Percent Change from Placebo” value ([2]; Males, 2 mg) was −56.1%, the “Expected Percent Reduction vs 0 mg dose” value ([2]; Males, 2 mg) was 42.05% and the “Expected # of Lesions” value ([2]; Males, 3 mg) was 3.64. For the same compound, the “Expected Percent Change from Placebo” value ([2]; Males, 3 mg) was −67.1%, the “Expected Percent Reduction vs 0 mg dose” value ([2]; Males, 3 mg) was 56% and 56.14% and the “Expected # of Lesions” value ([2]; Males, 4 mg) was 2.73. For the same compound, the “Expected Percent Change from Placebo” value ([2]; Males, 4 mg) was −75.5%, the “Expected Percent Reduction vs 0 mg dose” value ([2]; Males, 4 mg) was 67.11% and the “Expected # of Lesions” value ([2]; Males, 5 mg) was 2.03. The “Expected Percent Change from Placebo” value ([2]; Males, 5 mg) was −82.1%, the “Expected Percent Reduction vs 0 mg dose” value ([2]; Males, 5 mg) was 75.54% and the “Expected # of Lesions” value ([2]; Males, 6 mg) was 1.49. The “Expected Percent Change from Placebo” value ([2]; Males, 6 mg) was −87.1%, the “Expected Percent Reduction vs 0 mg dose” value ([2]; Males, 6 mg) was 82.05% and the “Expected # of Lesions” value ([2]; Males, 7 mg) was 1.07. The “Expected Percent Change from Placebo” value ([2]; Males, 7 mg) was −91.0%, the “Expected Percent Reduction vs 0 mg dose” value ([2]; Males, 7 mg) was 87.11% and the “Expected # of Lesions” value ([2]; Males, 8 mg) was 0.74. For the same compound, the “Expected Percent Change from Placebo” value ([2]; Males, 8 mg) was −94.1%, the “Expected Percent Reduction vs 0 mg dose” value ([2]; Males, 8 mg) was 91.08% and the “Expected # of Lesions” value ([2]; Males, 9 mg) was 0.49. The “Expected Percent Change from Placebo” value ([2]; Males, 9 mg) was −96.4%, the “Expected Percent Reduction vs 0 mg dose” value ([2]; Males, 9 mg) was 94.10% and the “Expected # of Lesions” value ([2]; Males, 10 mg) was 0.30. For the same compound, the “Expected Percent Change from Placebo” value ([2]; Males, 10 mg) was −100.0%, the “Expected Percent Reduction vs 0 mg dose” value ([2]; Males, 10 mg) was 96.39% and the “reduction in new lesions on the dose response curve in Table 8” value ([2]; men, 3 mg per day) was 67%. The “expected reduction in lesions as compared to placebo (Table 8)” value ([2]; men, 5 mg per day as printed) was 67% and the “expected reduction in lesions as compared to placebo (Table 8)” value ([2]; women, 5 mg per day) was 56%.
